Test results reported in PMC7534323 (Journal of Enzyme Inhibition and Medicinal Chemistry, 2020).
Several values for one entry are separate records, joined by “and”; a condition that tells them apart may be missing. Identical values can stand only once.

What was measured:
[1] = target: T1, human erythrocyte acetylcholinesterase (AChE) (Homo sapiens, UniProt P22303); assay: biochemical; assay type: biochemical
T1 construct: 400-fold diluted solution of haemolysed erythrocytes or 200-fold diluted plasma; from tissue; host or cells: haemolysed erythrocytes from blood of healthy human donors
Method: (§1) Blood samples were obtained from healthy donors of Blood Donation Centre in Lodz and The Voievodal Specialised Hospital in Lodz. The preparation of erythrocytes for AChE activity measurements and plasma for the assessment of BuChE activity has been described previously.
(§2) The biological sample, consisting of a 400-fold diluted solution of haemolysed erythrocytes or 200-fold diluted plasma was incubated for 15 min (37 °C) with DTNB; the tested compound was then added in a volume of 10 µL. The enzymatic reaction was initiated by addition of a reaction substrate (ATC or BTC).

[2] = target: human plasma butyrylcholinesterase (BuChE) (Homo sapiens, UniProt P06276); assay: biochemical
Method: as §1, §2

BuChE in human plasma = BuChE in human plasma (Homo sapiens, UniProt P06276)
Method: Due to the high level of variation in the individual concentration and activity of BuChE in human plasma, 32 biological samples were studied.
The kinetic parameters of enzymatic reactions were estimated using linear regression (Hanes-Woolf plots). The following parameters were calculated: the maximal velocity (Vmax) and the Michaelis constant (Km).
The kinetic parameters of BuChE reactions were obtained in a series of experiments using decreasing concentrations of BTC. The curves were analysed using the Hanes-Woolf equation, in which the ratio of the initial substrate concentration [S] to the reaction velocity v is plotted against [S].

T1 sequence (P22303 other isoform, or with tags, fused parts or gaps): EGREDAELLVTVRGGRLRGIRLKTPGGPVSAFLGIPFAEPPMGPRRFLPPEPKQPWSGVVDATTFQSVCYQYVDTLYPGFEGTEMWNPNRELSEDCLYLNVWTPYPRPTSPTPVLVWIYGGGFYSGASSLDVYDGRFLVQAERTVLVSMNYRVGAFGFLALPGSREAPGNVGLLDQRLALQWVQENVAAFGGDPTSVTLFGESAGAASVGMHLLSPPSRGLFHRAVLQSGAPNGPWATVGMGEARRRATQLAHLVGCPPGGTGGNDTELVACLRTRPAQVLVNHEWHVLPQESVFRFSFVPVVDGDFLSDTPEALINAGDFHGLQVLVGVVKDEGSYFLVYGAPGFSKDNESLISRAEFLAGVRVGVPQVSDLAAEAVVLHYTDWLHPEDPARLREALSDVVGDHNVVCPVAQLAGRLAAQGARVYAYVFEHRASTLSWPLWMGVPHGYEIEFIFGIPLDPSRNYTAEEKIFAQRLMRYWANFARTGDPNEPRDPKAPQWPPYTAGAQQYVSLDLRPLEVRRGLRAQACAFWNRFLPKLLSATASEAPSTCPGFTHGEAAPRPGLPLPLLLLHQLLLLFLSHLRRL
Chain of BuChE in human plasma (P06276 29-602): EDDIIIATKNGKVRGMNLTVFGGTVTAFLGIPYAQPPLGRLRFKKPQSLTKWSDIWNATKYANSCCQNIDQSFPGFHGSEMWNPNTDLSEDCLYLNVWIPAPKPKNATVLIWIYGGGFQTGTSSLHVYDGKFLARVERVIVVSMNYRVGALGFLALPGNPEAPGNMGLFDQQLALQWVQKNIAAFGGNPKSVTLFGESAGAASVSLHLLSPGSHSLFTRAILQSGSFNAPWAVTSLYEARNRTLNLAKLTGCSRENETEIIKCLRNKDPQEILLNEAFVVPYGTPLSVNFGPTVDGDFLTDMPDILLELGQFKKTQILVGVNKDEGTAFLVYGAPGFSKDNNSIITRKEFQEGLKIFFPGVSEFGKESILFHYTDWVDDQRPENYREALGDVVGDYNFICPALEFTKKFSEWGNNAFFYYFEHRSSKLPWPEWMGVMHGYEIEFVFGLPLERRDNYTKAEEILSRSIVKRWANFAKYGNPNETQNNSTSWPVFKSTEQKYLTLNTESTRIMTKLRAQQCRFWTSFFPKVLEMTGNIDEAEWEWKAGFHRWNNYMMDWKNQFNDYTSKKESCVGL
Chain of human plasma butyrylcholinesterase (BuChE) (P06276 29-602): as above

Row | Structure (SMILES) | maximal inhibition of AChE ([1]; concentration range 0.01−100 µmol/L, vs control (100% of activity), listed as compound 2) | IC50 [2] [µM] | type of BuChE inhibition (BuChE in human plasma; from Km and Vmax with and without inhibitor at IC50 concentration) | Vmax(i) (Vmax of the reactions with inhibitor) (BuChE in human plasma; inhibitor at IC50 concentration, substrate BTC, mean ± SD) [A/min] | IC50 [1] [µM] | inhibition at 100 µM ([1]; read-out: maximal inhibitory effect against AChE) [%]
1 | Cc1ncc(C)n2nc(-c3ccn4cc(-c5ccccc5)nc4n3)nc12 [CPL500036-02] | 34.87 ± 1.65% and ~34.87% | – | – | – | – | –
2 | OCCOCCN1CCN(C2=Nc3ccccc3Sc3ccccc32)CC1 [Quetiapine] | – | 6.08 ± 1.64 | mixed inhibition | 0.137 ± 0.036 | > 100 | 8.82 ± 1.68
